Results as given in US12077503B2, “Substituted cyclic amides and their use as herbicides” (FMC CORPORATION, priority 2015, dated 2024).

How the values were obtained:
Format in all cases: in vivo
[1] = tested on: Kochia (Kochia scoparia); assay: Test A preemergence; details: Bassia scoparia, pre-emergence, 240 h, Preemergence
Method in brief: (§1)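 Each rating is a visual injury score from 0 to 100 given about 10 d after treatment, judged against untreated controls kept alongside in the greenhouse. In loam soil–sand blend, seeds got a preemergence directed soil spray, while postemergence plants were 2 to 10 cm tall at spraying.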

[2] = tested on: barnyardgrass (Echinochloa crus-galli); assay: Test A preemergence; details: Echinochloa crus-galli, pre-emergence, 240 h, Preemergence
Method in brief: as §1

[3] = tested on: giant foxtail (Setaria faberii); assay: Test A preemergence; details: Setaria faberi, pre-emergence, 240 h, Preemergence
Method in brief: as §1

[4] = tested on: pigweed (Amaranthus retroflexus); assay: Test A preemergence; details: Amaranthus retroflexus, pre-emergence, 240 h, Preemergence
[5] = tested on: ragweed (common ragweed, Ambrosia elatior); assay: Test A preemergence; details: Ambrosia artemisiifolia, pre-emergence, 240 h, Preemergence
Method in brief: as §1

[6] = tested on: ryegrass, Italian (Italian ryegrass, Lolium multiflorum); assay: Test A preemergence; details: Lolium multiflorum, pre-emergence, 240 h, Preemergence
Method in brief: as §1

[7] = tested on: Galium (catchweed bedstraw, Galium aparine); assay: Test A postemergence; details: Galium, post-emergence, 240 h, Postemergence, read-out: Plant response rating, Galium
Method in brief: as §1

[8] = tested on: Kochia (Kochia scoparia); assay: Test A postemergence; details: Bassia scoparia, post-emergence, 240 h, Postemergence, read-out: Plant response rating, Kochia
Method in brief: as §1

[9] = tested on: barnyardgrass (Echinochloa crus-galli); assay: Test A postemergence; details: Echinochloa crus-galli, post-emergence, 240 h, Postemergence, read-out: Plant response rating, Barnyardgrass
Method in brief: as §1

[10] = tested on: blackgrass (Alopecurus myosuroides); assay: Test A postemergence; details: Alopecurus myosuroides, post-emergence, 240 h, Postemergence, read-out: Plant response rating, Blackgrass
Method in brief: as §1

[11] = tested on: corn (Zea mays); assay: Test A postemergence; details: Zea mays, post-emergence, 240 h, Postemergence
Method in brief: as §1

[12] = tested on: giant foxtail (Setaria faberii); assay: Test A postemergence; details: Setaria faberi, post-emergence, 240 h, Postemergence, read-out: Plant response rating, Foxtail, Giant
Method in brief: as §1

[13] = tested on: pigweed (Amaranthus retroflexus); assay: Test A postemergence; details: Amaranthus retroflexus, post-emergence, 240 h, Postemergence, read-out: Plant response rating, Pigweed
Method in brief: as §1

[14] = tested on: ragweed (common ragweed, Ambrosia elatior); assay: Test A postemergence; details: Ambrosia artemisiifolia, post-emergence, 240 h, Postemergence, read-out: Plant response rating, Ragweed
Method in brief: as §1

[15] = tested on: ryegrass, Italian (Italian ryegrass, Lolium multiflorum); assay: Test A postemergence; details: Lolium multiflorum, post-emergence, 240 h, Postemergence, read-out: Plant response rating, Ryegrass, Italian
Method in brief: as §1

[16] = tested on: wheat (Triticum aestivum); assay: Test A postemergence; details: Triticum aestivum, post-emergence, 240 h, Postemergence, read-out: Plant response rating, Wheat
Method in brief: as §1

[17] = tested on: barnyardgrass (Echinochloa crus-galli); assay: Test B flooded paddy test; details: Echinochloa crus-galli, 250 g ai/ha, Flood; 0 to 100 scale where 0 is no effect and 100 is complete control; read-out: Barnyardgrass plant response rating
Method in brief: (§2)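 Rating scale 0–100 (visual, vs untreated controls) after a 13–15 d greenhouse period; application to the flood layer, 3 cm above soil and maintained; plants at 2-leaf stage when treated.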

[18] = tested on: ducksalad (Heteranthera limosa); assay: Test B flooded paddy test; details: Heteranthera limosa, 250 g ai/ha, Flood; 0 to 100 scale where 0 is no effect and 100 is complete control; read-out: Ducksalad plant response rating
Method in brief: as §2

[19] = tested on: rice (Oryra sativa); assay: Test B flooded paddy test; details: Oryza sativa, 250 g ai/ha, Flood; 0 to 100 scale where 0 is no effect and 100 is complete control; read-out: Rice plant response rating
Method in brief: as §2

[20] = tested on: sedge, umbrella (small-flower umbrella sedge, Cyperus difformis); assay: Test B flooded paddy test; details: Cyperus difformis, 250 g ai/ha, Flood; 0 to 100 scale where 0 is no effect and 100 is complete control; read-out: Sedge, Umbrella plant response rating
Method in brief: as §2

[21] = 125 g ai/ha, visual injury after approximately 10 d, 0 to 100 scale where 0 is no effect and 100 is complete control
[22] = 31 g ai/ha, visual injury after approx. 10 d, 0 to 100 scale, 0 no effect, 100 complete control

CN1CC[C@H](c2ccccc2C(F)(F)F)[C@@H](C(=O)Nc2ccc(F)c(F)c2F)C1=O [Compound 1010]
0%: pest or weed control at 31 g/ha ([1]; 31 g ai/ha, 0 to 100 scale where 0 is no effect and 100 is complete control, read-out: Kochia plant response rating) | pest or weed control at 125 g/ha ([1]; 125 g ai/ha, visual injury rating after approximately 10 d, read-out: Kochia plant response rating (0 to 100 scale, 0 is no effect, 100 is complete control)) | pest or weed control at 125 g/ha ([2]; 125 g ai/ha, visual injury rating after approximately 10 d, read-out: Barnyardgrass plant response rating (0 to 100 scale, 0 is no effect, 100 is complete control)) | pest or weed control at 31 g/ha ([2]; 31 g ai/ha, 0 to 100 scale (0 no effect, 100 complete control), read-out: Plant response rating, Barnyardgrass) | pest or weed control at 125 g/ha ([3]; 125 g ai/ha, visual injury rating after approximately 10 d, read-out: Foxtail, Giant plant response rating (0 to 100 scale, 0 is no effect, 100 is complete control)) | pest or weed control at 31 g/ha ([3]; 31 g ai/ha, 0 to 100 scale (0 no effect, 100 complete control), read-out: Plant response rating, Foxtail, Giant) | pest or weed control at 31 g/ha ([4]; 31 g ai/ha, 0 to 100 scale where 0 is no effect and 100 is complete control, read-out: Pigweed plant response rating) | pest or weed control at 125 g/ha ([4]; 125 g ai/ha, visual injury rating after approximately 10 d, read-out: Pigweed plant response rating (0 to 100 scale, 0 is no effect, 100 is complete control)) | pest or weed control at 31 g/ha ([5]; 31 g ai/ha, 0 to 100 scale where 0 is no effect and 100 is complete control, read-out: Ragweed plant response rating) | pest or weed control at 125 g/ha ([5]; 125 g ai/ha, visual injury rating after approximately 10 d, read-out: Ragweed plant response rating (0 to 100 scale, 0 is no effect, 100 is complete control)) | pest or weed control at 31 g/ha ([6]; 31 g ai/ha, 0 to 100 scale where 0 is no effect and 100 is complete control, read-out: Ryegrass, Italian plant response rating) | pest or weed control at 125 g/ha ([6]; 125 g ai/ha, visual injury rating after approximately 10 d, read-out: Ryegrass, Italian plant response rating (0 to 100 scale, 0 is no effect, 100 is complete control)) | pest or weed control at 125 g/ha [7, 21] | pest or weed control at 31 g/ha [7, 22] | pest or weed control at 125 g/ha [8, 21] | pest or weed control at 31 g/ha [8, 22] | pest or weed control at 125 g/ha [9, 21] | pest or weed control at 31 g/ha [9, 22] | pest or weed control at 125 g/ha [10, 21] | pest or weed control at 31 g/ha [10, 22] | Corn plant response rating (crop injury, 0 = no effect, 100 = complete kill) at 125 g/ha [11, 21] | Corn plant response rating (crop injury, 0 = no effect, 100 = complete kill) at 31 g/ha [11, 22] | pest or weed control at 125 g/ha [12, 21] | pest or weed control at 31 g/ha [12, 22] | pest or weed control at 125 g/ha [13, 21] | pest or weed control at 31 g/ha [13, 22] | pest or weed control at 125 g/ha [14, 21] | pest or weed control at 31 g/ha [14, 22] | pest or weed control at 125 g/ha [15, 21] | pest or weed control at 31 g/ha [15, 22] | plant injury at 125 g/ha [16, 21] | plant injury at 31 g/ha [16, 22] | pest or weed control at 250 g/ha [17] | pest or weed control at 250 g/ha [18] | pest or weed control at 250 g/ha [19] | pest or weed control at 250 g/ha [20]
